Laboratory results as given in ChEMBL document CHEMBL1201862, “PubChem BioAssay data set” (2004).
Activity calls are given as the source filed them.

Key:
[1] = target: T1, Calpain-2 catalytic subunit (Sus scrofa, UniProt P43367); assay: pig calpain II inhibitor potency, dose response, biochemical, fluorogenic peptide substrate (AID 1420); format: functional
T1 sequence (P43367 whole entry): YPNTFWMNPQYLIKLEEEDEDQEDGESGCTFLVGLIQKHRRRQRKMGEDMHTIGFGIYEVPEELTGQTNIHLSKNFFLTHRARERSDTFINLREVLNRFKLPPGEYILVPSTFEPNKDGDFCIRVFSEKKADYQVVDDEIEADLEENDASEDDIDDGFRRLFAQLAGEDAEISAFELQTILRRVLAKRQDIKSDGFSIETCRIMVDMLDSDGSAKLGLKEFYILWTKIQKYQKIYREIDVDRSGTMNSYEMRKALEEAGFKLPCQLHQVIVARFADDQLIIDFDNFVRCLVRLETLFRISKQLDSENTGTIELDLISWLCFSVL

[2] = target: T2, Heat shock factor protein 1 (Mus musculus, UniProt P38532); assay: HSF1 potentiators in luciferase reporter cells, confirmation, cell-based, NIH3T3, luminescence, dose retest (AID 435004); format: functional;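 further: stress induced by proteasome inhibitor MG132 added 30 min after compound; luciferase reporter driven by HSF1 response element in NIH3T3 cells; actives raise luminescence as potentiators of the MG132 stress response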
T2 sequence (P38532 whole entry): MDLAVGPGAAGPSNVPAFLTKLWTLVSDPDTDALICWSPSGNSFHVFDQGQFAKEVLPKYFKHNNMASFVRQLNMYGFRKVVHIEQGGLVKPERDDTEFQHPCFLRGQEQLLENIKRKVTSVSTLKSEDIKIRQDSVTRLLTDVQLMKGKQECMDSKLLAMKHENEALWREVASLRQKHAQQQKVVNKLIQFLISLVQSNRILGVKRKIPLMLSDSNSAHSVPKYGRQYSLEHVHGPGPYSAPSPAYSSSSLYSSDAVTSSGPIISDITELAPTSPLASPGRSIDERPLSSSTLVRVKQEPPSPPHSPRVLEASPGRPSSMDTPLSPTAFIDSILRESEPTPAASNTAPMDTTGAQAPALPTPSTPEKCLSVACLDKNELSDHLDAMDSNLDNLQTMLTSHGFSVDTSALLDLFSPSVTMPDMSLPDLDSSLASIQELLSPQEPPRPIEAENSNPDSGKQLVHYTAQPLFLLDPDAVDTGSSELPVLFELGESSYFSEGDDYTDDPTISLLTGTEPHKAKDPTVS

[3] = target: T3, Carboxy-terminal domain RNA polymerase II polypeptide A small phosphatase 1 (Homo sapiens, UniProt Q9GZU7); assay: inhibitors of CTDSP1, concentration-response testing, biochemical assay, absorbance-based, actives from ultra-high-throughput screening (AID 540297); format: functional
T3 sequence (Q9GZU7 whole entry): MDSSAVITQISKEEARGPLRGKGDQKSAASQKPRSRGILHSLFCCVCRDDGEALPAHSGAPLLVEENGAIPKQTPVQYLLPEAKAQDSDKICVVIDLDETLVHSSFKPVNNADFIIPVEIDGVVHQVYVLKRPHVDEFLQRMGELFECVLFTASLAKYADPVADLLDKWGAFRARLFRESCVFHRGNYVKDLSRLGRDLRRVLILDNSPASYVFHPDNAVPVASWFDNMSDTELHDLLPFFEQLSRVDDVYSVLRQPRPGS

[4] = target: FAD-linked sulfhydryl oxidase ALR (Homo sapiens, UniProt P55789); assay: inhibitors of human ALR sulfhydryl oxidase, dose response, biochemical, H2O2 detection, luminescence, cherry-pick (AID 493248)
FAD-linked sulfhydryl oxidase ALR, sequence (P55789 whole entry, the tested form may be a part): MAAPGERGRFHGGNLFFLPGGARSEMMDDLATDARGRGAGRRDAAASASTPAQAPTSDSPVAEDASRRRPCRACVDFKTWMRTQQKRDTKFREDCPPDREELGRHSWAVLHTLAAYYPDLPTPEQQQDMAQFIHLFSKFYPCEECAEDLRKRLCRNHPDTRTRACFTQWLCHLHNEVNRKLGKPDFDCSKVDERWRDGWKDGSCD

[5] = target: T4, RNA-binding protein pos-1 (Caenorhabditis elegans, UniProt G5EF15); assay: inhibitors of POS-1/mex-3 RNA binding, dose response, biochemical, fluorescence polarization (AID 1964);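 further: purified POS-1 fused to maltose binding protein made in E. coli; potency of compounds blocking POS-1 binding to fluorescent RNA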
T4 sequence (G5EF15 whole entry): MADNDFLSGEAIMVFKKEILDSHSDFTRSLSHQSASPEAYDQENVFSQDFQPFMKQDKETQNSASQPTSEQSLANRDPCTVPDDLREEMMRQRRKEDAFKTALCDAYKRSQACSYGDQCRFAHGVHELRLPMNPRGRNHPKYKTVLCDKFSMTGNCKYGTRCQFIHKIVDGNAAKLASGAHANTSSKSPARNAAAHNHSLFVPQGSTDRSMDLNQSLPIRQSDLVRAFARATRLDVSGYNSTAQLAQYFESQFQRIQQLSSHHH

[6] = target: T5, Zinc finger protein mex-5 (Caenorhabditis elegans, UniProt Q9XUB2); assay: MEX-5/TCR-2 RNA interaction inhibitors, dose response, biochemical, C. elegans, fluorescence polarization (AID 1960)
T5 sequence (Q9XUB2 whole entry): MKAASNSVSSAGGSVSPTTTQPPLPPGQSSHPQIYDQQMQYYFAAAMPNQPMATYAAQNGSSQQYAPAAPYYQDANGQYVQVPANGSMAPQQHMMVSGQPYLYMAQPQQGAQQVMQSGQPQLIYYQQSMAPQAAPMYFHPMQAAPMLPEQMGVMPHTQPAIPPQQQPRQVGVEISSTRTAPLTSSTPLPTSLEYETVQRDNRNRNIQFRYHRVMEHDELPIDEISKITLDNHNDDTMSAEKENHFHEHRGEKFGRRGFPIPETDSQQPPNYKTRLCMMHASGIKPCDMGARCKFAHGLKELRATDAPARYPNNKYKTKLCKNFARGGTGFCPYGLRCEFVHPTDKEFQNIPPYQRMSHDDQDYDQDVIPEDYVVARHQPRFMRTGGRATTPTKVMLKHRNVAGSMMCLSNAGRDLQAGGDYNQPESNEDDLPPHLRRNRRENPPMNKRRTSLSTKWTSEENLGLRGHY

[7] = NIH-3T3 fibroblast cytotoxicity, dose response, cytotoxicity control, cell-based, fluorescence, Alamar Blue, secondary assay (AID 2327); format: functional;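 further: NIH-3T3 mouse fibroblasts cultured with fluconazole at 8 µg/mL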
[8] = C. albicans growth with fluconazole, confirmation, fluorescence, retest (AID 2467); format: functional, cell-based
[9] = inhibitors of clade B AD8 Env fusion, dose response, cell-based, cherry-pick (AID 652062); format: functional;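 further: luciferase signal from cell-cell fusion driven by HIV-1 clade B AD8 Env; potency is for inhibitors of fusion seen as a drop in luminescence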
Cytochrome P450 3A4 = Cytochrome P450 3A4 (Homo sapiens, UniProt P08684);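 further: CYP3A4 tested as one member of a cytochrome P450 panel screen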
Cytochrome P450 3A4, sequence (P08684 whole entry): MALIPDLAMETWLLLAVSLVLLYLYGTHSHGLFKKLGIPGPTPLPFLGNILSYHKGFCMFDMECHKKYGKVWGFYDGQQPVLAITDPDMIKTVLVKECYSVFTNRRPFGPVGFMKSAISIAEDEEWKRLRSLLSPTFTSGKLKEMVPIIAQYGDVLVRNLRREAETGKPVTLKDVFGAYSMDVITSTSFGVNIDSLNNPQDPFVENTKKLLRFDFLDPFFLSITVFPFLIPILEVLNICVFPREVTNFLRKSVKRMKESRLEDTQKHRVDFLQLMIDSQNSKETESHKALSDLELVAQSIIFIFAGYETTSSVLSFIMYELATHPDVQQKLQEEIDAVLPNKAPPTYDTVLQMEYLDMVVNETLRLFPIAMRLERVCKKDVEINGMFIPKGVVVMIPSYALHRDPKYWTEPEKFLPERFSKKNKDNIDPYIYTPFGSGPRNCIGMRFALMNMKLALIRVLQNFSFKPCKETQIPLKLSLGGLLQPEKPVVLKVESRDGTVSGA

[10] = growth suppression of PTEN-null colon cells, dose response, cell-based, HCT116 PTEN knockout (AID 1047); format: functional;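 further: HCT116 colon tumor cells with PTEN knocked out; cells exposed to compound for 60 hours before readout; potency for loss of cell viability measured by luminescence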
[11] = growth suppression of beta-catenin-knockout colon cells, dose response, cell-based, HCT116, human colon tumor (AID 1045); format: functional;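 further: HCT116 colon tumor cells with beta catenin knocked out; cells exposed to compound for 60 hours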
Nonstructural protein 1 = Nonstructural protein 1 (Influenza A virus, UniProt Q194T2); format: functional, Influenza A virus (A/California/07/2009(H1N1))
Nonstructural protein 1, sequence (Q194T2 whole entry): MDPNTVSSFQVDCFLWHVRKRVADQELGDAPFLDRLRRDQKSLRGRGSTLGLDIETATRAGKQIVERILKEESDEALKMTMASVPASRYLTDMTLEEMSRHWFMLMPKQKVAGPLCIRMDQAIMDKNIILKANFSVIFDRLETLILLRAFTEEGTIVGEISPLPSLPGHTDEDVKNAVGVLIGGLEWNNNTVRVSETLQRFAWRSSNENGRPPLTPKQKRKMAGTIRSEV

[12] = target: T6, Polyadenylate-binding protein 1 (Homo sapiens, UniProt P11940); assay: PABP1 MLLE–PAM2 interaction inhibitors, dose response, miRNA deadenylation inhibitor project, biochemical, fluorescence polarization, Cy5-PAM2 peptide, secondary (AID 602260); format: functional; settings: read-out: IC50_Mean
T6 sequence (P11940 whole entry): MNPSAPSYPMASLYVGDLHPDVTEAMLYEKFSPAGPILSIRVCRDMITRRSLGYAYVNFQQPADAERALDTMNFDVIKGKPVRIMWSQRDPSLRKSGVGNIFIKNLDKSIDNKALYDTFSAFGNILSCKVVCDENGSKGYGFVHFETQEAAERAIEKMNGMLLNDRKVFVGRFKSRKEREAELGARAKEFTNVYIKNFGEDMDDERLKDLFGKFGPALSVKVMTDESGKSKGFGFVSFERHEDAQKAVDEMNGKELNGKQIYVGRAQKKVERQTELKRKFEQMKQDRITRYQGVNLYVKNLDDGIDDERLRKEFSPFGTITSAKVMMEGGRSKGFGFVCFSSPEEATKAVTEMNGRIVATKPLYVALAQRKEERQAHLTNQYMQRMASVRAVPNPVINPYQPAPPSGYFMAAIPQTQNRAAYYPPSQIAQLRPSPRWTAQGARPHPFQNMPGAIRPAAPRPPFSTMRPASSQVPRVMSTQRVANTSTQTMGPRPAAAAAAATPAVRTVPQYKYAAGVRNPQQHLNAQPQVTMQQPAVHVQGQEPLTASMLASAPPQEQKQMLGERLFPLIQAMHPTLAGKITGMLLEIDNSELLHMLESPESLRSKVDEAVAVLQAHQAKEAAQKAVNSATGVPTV

[13] = target: T6, Polyadenylate-binding protein 1; assay: PABP1 MLLE–PAM2 binding inhibitor potency, dose response, biochemical, fluorescence polarization, FITC-PAM2 peptide (AID 602259); format: functional; settings: read-out: IC50_Mean

Cc1ccc(NC2OC(CO)C(O)C2O)cc1[N+](=O)[O-] (stereo unspecified)
IC50 [1]: > 50 µM (not active) | EC50 [2]: > 260 µM (inactive)

O=C(CCS(=O)(=O)c1ccc(Br)cc1)NC1CCCC1
IC50 [3]: 9.44 µM (active)

CC[N+]1(C)CC2CCC(C)(C1)C2(C)C (stereo unspecified)
IC50 [3]: 27.8 µM (active)

CCNc1ccc(S(=O)(=O)N(C)C)cc1NCC(=O)Nc1ccccc1F
AC50 [4]: 1.8 µM (active)

COC(=O)CCC(=O)OC1(C)C(=O)C=C2C=C(C3CC3)OC=C2C1=O (stereo unspecified)
EC50 [5]: 17.7 µM (active) | EC50 [6]: 68.8 µM (inconclusive)

CCCCC(=O)OCC(=O)c1[nH]c(C)c(C(=O)OCC)c1C
EC50 [2]: > 260 µM (inactive)

C=CC[n+]1c(-c2ccc(C)cc2)csc1NNC(=O)Nc1ccccc1
EC50 [7]: > 150 µM (inconclusive) | EC50 [8]: 1.27 µM (active) | AC50 [9]: 9.27 µM (active) | AC50 (Cytochrome P450 3A4): 3.55 µM (inconclusive)

CCOC(=O)C(C(=O)OCC)C(C(=O)OCC)N1CCOCC1 (stereo unspecified)
EC50 [10]: 6.34 µM (active) | EC50 [11]: 5.16 µM (active)

COC(=O)C1=C(C)N(c2cc(Cl)cc(Cl)c2)C(=O)C1
EC50 [10]: 35.6 µM (active) | EC50 [11]: 42.9 µM (active)

Cc1cc(S(=O)(=O)N2CCN(c3ccccc3O)CC2)c(C)s1
AC50 [4]: 0.156 µM (active)

COc1ccc(CSc2nc(O)cc(=O)n2CC(C)C)cc1F
AC50 [4]: 0.949 µM (active)

O=C(CN1C(=O)c2cccc3cccc(c23)C1=O)N1CCN(Cc2ccc3c(c2)OCO3)CC1
IC50 (Nonstructural protein 1): > 100 µM (active)

O=C(CSc1nnc(Nc2ccccc2F)s1)NC(=O)CN1CCCC1=O
IC50 [3]: 5.43 µM (active)

Cc1cccc(N=Nc2c(O)nc(O)c(C#N)c2C)c1
EC50 [2]: 258 µM (active)

C#CCOCCOCCOCCNc1nc(N2CCN(C(=O)[C@H]([C@@H](C)CC)n3cc([C@@H](N)CO)nn3)CC2)nc(N2CCN(C(=O)[C@H]([C@@H](C)CC)n3cc([C@@H](N)CC(C)C)nn3)CC2)n1
EC50 [5]: 24.4 µM (active) | EC50 [6]: 18 µM (active) | IC50 [12]: > 66 µM (inactive) | IC50 [13]: 43.1 µM (inactive)

Cc1ccc(-c2nc(-c3ccccn3)sc2CC(=O)O)cc1
AC50 [4]: 0.226 µM (active)

COc1ccc(CCNCc2ccc(Br)cc2)cc1OC
EC50 [2]: > 260 µM (inactive)

CCN(CC)c1ccc(Nc2nc(N3CCOCC3)c3ccccc3n2)cc1
IC50 (Nonstructural protein 1): 11.5 µM (active)

O=C(COC(=O)c1ccccc1O)NCc1ccco1
IC50 [3]: 9.53 µM (active)

O=C(Nc1nnc(-c2cccnc2)o1)c1cccc([N+](=O)[O-])c1
AC50 [4]: 1.61 µM (active)

O=c1[nH]c(CN2CCc3ccccc3C2)nc2ccccc12
EC50 [5]: > 300 µM (not active) | EC50 [6]: > 300 µM (not active) | IC50 [12]: > 66 µM (inactive) | IC50 [13]: > 66 µM (inactive)

COc1ccccc1NC(=O)C1=C(C)N(c2ccccc2)C(S)=NC1c1cccc(C(F)(F)F)c1 (stereo unspecified)
EC50 [10]: 14.3 µM (active) | EC50 [11]: 13.7 µM (active)

O=C(Nc1c(C(=O)c2ccccc2)oc2ccccc12)c1cc(-c2ccccc2O)n[nH]1
EC50 [2]: > 260 µM (inactive)

COc1cccc(N2C(=O)NC(=O)/C(=C/Nc3c(C)n(C)n(-c4ccccc4)c3=O)C2=O)c1
EC50 [5]: > 300 µM (not active) | EC50 [6]: > 300 µM (not active)

CC(=O)Nc1ccc(N2C(=O)CSC2c2ccccc2[N+](=O)[O-])cc1 (stereo unspecified)
AC50 [4]: 0.517 µM (active)

CN(C)c1ccc(CN(Cc2ccco2)C(=O)c2ccco2)cc1
AC50 [4]: 0.822 µM (active)

O=C(Nc1ccc2c(c1)C(=O)NC2=O)c1cccc(C(F)(F)F)c1
IC50 [3]: 9.33 µM (active)

CC(C)OC(=O)CC(=O)CSc1nc2c(cc1C#N)CCC2
EC50 [10]: 5.82 µM (active) | EC50 [11]: 8.4 µM (active)

COc1ccc(Br)cc1CNc1ccc2[nH]c(O)nc2c1
AC50 [4]: 1.08 µM (active)

O=C(N/N=C/c1ccncc1)c1ccc(NC(=O)c2cccc(Cl)c2)cc1
IC50 [3]: 13.9 µM (active)

NC(=O)c1cccc(/N=C/c2cc(Cl)cc(Cl)c2O)c1
EC50 [5]: > 300 µM (not active) | EC50 [6]: > 300 µM (not active)

O=C(NCc1ccccn1)C(=O)N/N=C/c1ccccc1O
IC50 (Nonstructural protein 1): 14 µM (active)

COc1ccc(C2C(C#N)=C(/N=C/N3CCOCC3)OC3=C2C(=O)CC(C)(C)C3)cc1OC (stereo unspecified)
EC50 [5]: > 300 µM (not active) | EC50 [6]: > 300 µM (not active)
